Some test systems named below: SF-539 CNS; NCI-H226 lung; A549 NSCLC; HT29 colon; RPMI-8226 leukemia; HCC-2998 colon; ACHN renal; SK-MEL-5 melanoma; MALME-3M melanoma; NCI-H23 lung.
Common to all, as to experiment: NCI anticancer screen, dose series, 48 h

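Test compounds were applied to cells in 96-well plates for 48 hours at 5 doses. Abbreviation: GI50, concentration required for 50% inhibition of growth. TGI denotes the concentration required for complete inhibition of growth.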

Results on four compounds are retold here after PubChem BioAssay (NCI).

With `O=C1c2ccccc2-c2c1c1ccccc1c(=O)n2CCCNCCCn1c2c(c3ccccc3c1=O)C(=O)c1ccccc1-2`, the GI50 is 3830 nM in the experiment on SF-539 CNS; 4.42 µM in the experiment with NCI-H226 lung; 2010 nM in the experiment with A549 NSCLC; 997 nM in the experiment on HT29 colon; 2580 nM with RPMI-8226 leukemia; 6.82 µM in the experiment with HCC-2998 colon. Moreover, the GI50 in the experiment on ACHN renal is 814 nM; in the experiment with SK-MEL-5 melanoma, 7.21 µM; in the experiment with MALME-3M melanoma, 12.6 µM; with NCI-H23 lung, 10.4 µM. The TGI is 13 µM with SF-539 CNS; 13.9 µM in the experiment with NCI-H226 lung; more than 50 µM in the experiment with A549 NSCLC; more than 50 µM in the experiment with HT29 colon; 15.9 µM in the experiment with RPMI-8226 leukemia; 17.7 µM with HCC-2998 colon. The TGI was 8.81 µM in the experiment on ACHN renal, 16.9 µM in the experiment on SK-MEL-5 melanoma, 26.2 µM in the experiment on MALME-3M melanoma and more than 29.7 µM with NCI-H23 lung.
As for `CN/N=C(/Cc1occc(=O)c1O)C(=O)Nc1ccc(C)c(C)c1`, the TGI with SF-539 CNS, in the experiment on NCI-H226 lung, with A549 NSCLC, in the experiment on HT29 colon, in the experiment with RPMI-8226 leukemia and in the experiment on HCC-2998 colon was more than 100 µM each time. Besides, the TGI in the experiment on ACHN renal, in the experiment on SK-MEL-5 melanoma, with MALME-3M melanoma and in the experiment on NCI-H23 lung was more than 100 µM in each case.
Turning to `COc1ccc(CN2C(=O)/C(=C\c3cc(OC)c(OC)c(OC)c3)c3cc(OC)ccc32)cc1`, the GI50 is 1860 nM in the experiment on SF-539 CNS; 3.93 µM with NCI-H226 lung; 2740 nM with A549 NSCLC; 2190 nM in the experiment on HT29 colon; 1890 nM in the experiment with RPMI-8226 leukemia; 2.05 µM in the experiment with HCC-2998 colon. Further, the GI50 in the experiment on ACHN renal was 1730 nM; with SK-MEL-5 melanoma, 3.09 µM; in the experiment with MALME-3M melanoma it was 3.82 µM; in the experiment with NCI-H23 lung, 1.84 µM. Also, the TGI with SF-539 CNS is 3.76 µM; in the experiment on NCI-H226 lung, 22.8 µM; in the experiment with A549 NSCLC, 8.62 µM; with HT29 colon, 4.45 µM; in the experiment on RPMI-8226 leukemia it was 5.63 µM; with HCC-2998 colon it was 3.85 µM. In addition, the TGI in the experiment with ACHN renal is 3.2 µM; with SK-MEL-5 melanoma it was 9.41 µM; in the experiment on MALME-3M melanoma, 34.1 µM; in the experiment on NCI-H23 lung, 3.85 µM.
For the compound `O=C1C2C(C(=O)N1O)N(Cc1ccccc1)C(=O)N2Cc1ccccc1` (stereo not given), the TGI with SF-539 CNS, in the experiment with NCI-H226 lung, with A549 NSCLC, in the experiment on HT29 colon, in the experiment with RPMI-8226 leukemia and in the experiment with HCC-2998 colon was more than 100 µM each time. The TGI with ACHN renal, with SK-MEL-5 melanoma, with MALME-3M melanoma and with NCI-H23 lung was more than 100 µM each time.
